Source: paper PMC6027433, “Synthesis, Evaluation of Cytotoxicity and Molecular Docking Studies of the 7-Acetamido Substituted 2-Aryl-5-bromo-3-trifluoroacetylindoles as Potential Inhibitors of Tubulin Polymerization” (Pharmaceuticals, 2018)

Assays:
[1] = tested on: neurotesin receptor type 2 (NTS2); design: method as in PMID 25157640; details: cited from earlier work
lung cancer (A549) cells = test: MTT dose response cytotoxicity, A549; type: cell-based; details: Homo sapiens, 48 h
Method: (§1) Cells were seeded as described in above. […] The medium was aspirated and replaced with 200 μL fresh medium containing the dilution of the respective test compound. The test sample were added to each well and the plates were incubated for a further 48 h at 37 °C under 5% CO2 atmosphere in a humidified incubator. After this incubation period, the medium was removed and then replaced with 100 μL fresh culture medium containing MTT at a final concentration of 0.5 mg/mL. The 96-well plates were returned to the incubator and incubated for an additional 3 h. The medium was removed and the MTT crystals were solubilized in 100 μL DMSO and the absorbance was measured at 560 nm using a Labsystems Multiwell Scanning spectrophotometer (Thermo Fischer Scientific, Edenvale, South Africa).
(§2) Quantification of live and dead cells for the screening assay was performed using the ImageXpress Micro XLS Widefield Microscope and acquired images analysed using the MetaXpress software and Multi-Wavelength Cell Scoring Application Module. Acquired data was transferred to an EXCEL spreadsheet and relative cell viability was determined using quadruplicate wells for each concentration. Untreated cells were considered to have 100% cell viability (i.e., the mean OD of the untreated wells = 100% viability). Cell viabilities in other test wells were calculated relative to the untreated control and expressed as a percentage. Dose response analysis was performed using the statistical software GraphPad Prism and IC50 values calculated from the concentration-response data using a mathematical Hill function.

[2] = tested on: cervical cancer (HeLa) cells; test: MTT dose response cytotoxicity, HeLa; type: cell-based; details: Homo sapiens, 48 h
Method: as §1, §2

HeLa cells [3] = test: Caspase 8 and 3 activation (immunochemical), HeLa; type: cell-based, human; details: 24 h exposure at IC50 values
Method: (§3) Several distinctive mechanisms of cancer cell death such as apoptosis, necrosis, autophagy and cornification have been identified, and these are characterized by differences in morphology and biochemical changes. A major biochemical feature of apoptosis is the activation of caspases, which plays a central role in the morphological changes associated with apoptosis. Caspase activation was determined using immunochemical methods and the antibodies against activated caspase 8 and caspase 3. […] Activated caspase 8 can be used as a convenient indicator of involvement of the extrinsic death receptor pathway of apoptosis. Executioner caspases including caspase 3 are, in turn, activated by the initiator caspases. This protein is either partially or totally responsible for the cleavage of many key proteins such as PARP, DNA protein kinases and retinoblastoma protein [25]. […] This was true for both activated caspase 8 and 3. A more distinct increase was evident with caspase 3 albeit less pronounced than that of 4c and the increase was expected as caspase 3 is activated by initiator caspase including caspase 8, which is a later event in apoptosis. […] Prolonged treatment of the cells with compounds 5e–h for 48 h or more, for example, would probably result in significant effects. We also evaluated compound 5g for potential to induce other key apoptotic biochemical features such as phosphatidylserine (PS) translocation, cell cycle arrest and mitochondrial membrane depolarization.
(§4) Compounds 4c and 5g were selected for mechanism studies and these test compounds were reconstituted in dimethyl sulphoxide (DMSO) to give a final concentration of 40 mM. Samples were stored at 4 °C until required. […]
(§5) Quantification of live and dead cells for the assay was performed using the ImageXpress Micro XLS Widefield Microscope and acquired images analysed using the MetaXpress software and Multi-Wavelength Cell Scoring Application Module and the Cell Cycle Module. Acquired data was transferred to an EXCEL spreadsheet and data was analysed and processed.

A549 cells [4] = test: Caspase 8 and 3 activation (immunochemical), A549; type: cell-based, human; details: 24 h exposure at IC50 values
Method: as §3, §4, §5

HeLa cells [5] = test: Other apoptotic features (PS translocation, cell cycle arrest, mitochondrial membrane depolarization), HeLa; type: cell-based, human; details: after 24 h (data not included)
Method: (§6) Several distinctive mechanisms of cancer cell death such as apoptosis, necrosis, autophagy and cornification have been identified, and these are characterized by differences in morphology and biochemical changes. A major biochemical feature of apoptosis is the activation of caspases, which plays a central role in the morphological changes associated with apoptosis. Caspase activation was determined using immunochemical methods and the antibodies against activated caspase 8 and caspase 3. […] Activated caspase 8 can be used as a convenient indicator of involvement of the extrinsic death receptor pathway of apoptosis. Executioner caspases including caspase 3 are, in turn, activated by the initiator caspases. This protein is either partially or totally responsible for the cleavage of many key proteins such as PARP, DNA protein kinases and retinoblastoma protein [25]. […] This was true for both activated caspase 8 and 3. A more distinct increase was evident with caspase 3 albeit less pronounced than that of 4c and the increase was expected as caspase 3 is activated by initiator caspase including caspase 8, which is a later event in apoptosis. […] We also evaluated compound 5g for potential to induce other key apoptotic biochemical features such as phosphatidylserine (PS) translocation, cell cycle arrest and mitochondrial membrane depolarization.

A549 cells [6] = test: Other apoptotic features (PS translocation, cell cycle arrest, mitochondrial membrane depolarization), A549; type: cell-based, human; details: after 24 h (data not included)
Method: as §6

Row | SMILES | fold more active than the expected C-3 unsubstituted analogue ([1]; NTS2) [fold] | IC50 [1] [µM] | IC50 (lung cancer (A549) cells) [µM] | IC50 [2] [µM] | Caspase 8 and 3 activation (% change in mean integrated fluorescence intensity of the untreated control) (HeLa cells [3]) | Caspase 8 and 3 activation (% change in mean integrated fluorescence intensity of the untreated control) (A549 cells [4]) | PS translocation, cell cycle arrest and mitochondrial membrane depolarization (HeLa cells [5]) | PS translocation, cell cycle arrest and mitochondrial membrane depolarization (A549 cells [6])
1 | Cc1ccc(S(=O)(=O)Nc2ccc3c(c2)c(C(=O)C(F)(F)F)cn3CC(=O)N[C@@H](CC(C)C)C(=O)O)cc1 [NTRC-824, N-[(5-{[(4-methylphenyl)sulfonyl]amino}-3-(trifluoroacetyl)-1H-indol-1-yl)acetyl]-L-leucine] | 90 | 0.038 | – | – | – | – | – | –
2 | CC(=O)Nc1cc(Br)cc2c(C(=O)C(F)(F)F)c(-c3cccc(Cl)c3)[nH]c12 [Compound 5g, N-[5-Bromo-2-(3-chlorophenyl)-3-trifluoroacetyl-1H-indol-7-yl]acetamide] | – | – | 2.72 ± 0.43 | 8.74 ± 0.94 | decrease | expected increase | failed to induce | failed to induce
